The term Inhibition denotes the drop in the measured response relative to a control, in per cent.

This experiment concerns Cryptosporidium parvum. The experiment in a line: MMV: Cryptosporidium parvum oocysts (Iowa Strain) were prepared for use by treatment with 10 mM HCl (37 degrees C, 10 min) followed by 2 mM sodium taurocholate in phosphate-buffered saline (PBS) with Ca2+ and Mg2+ (16 degrees C, 10 min) in order to stimulate excystation. The high-throughput screen was carried out by inoculating >90% confluent human ileocecal adenocarcinoma (HCT-8) cells (ATCC) with ~5.5 x 10^3 primed oocysts per well. Experimental compounds or DMSO (vehicle) were added three hours after infection, and cells were incubated for 48 hours. Type of experiment: functional.

On to `Clc1ccc2c(N3CCCC3)ccnc2c1`, for which the Inhibition is on record as -28.37%. For the compound `COc1ccc(C2C(C(=O)Nc3cccc(OC)c3)c3ccccc3C(=O)N2C2CCCCC2)cc1` (stereo unspecified), the Inhibition was -43.91%. As for `OC(Cn1nnc2ccccc21)Cn1c2ccc(Br)cc2c2cc(Br)ccc21` (stereo unspecified), the Inhibition is listed as -11.24%. For `CCCN(CCC)CC(O)COc1ccccc1C(=O)Nc1ccccc1` (stereo unspecified) the value was 46.62%; for `Cc1cc(C)cc(Nc2cc(C)nc3nc(C(F)(F)F)nn23)c1`, -21.92%; for `COc1ccc(-c2nc(N3CCN(C(=O)C4CCCCC4)CC3)c3c4c(sc3n2)CCCC4)cc1`, -3.496%. For `COc1cccc(C(=O)Nc2ccc(-c3nc4ccccc4[nH]3)cc2)c1` the value was -26.13%; for `COc1ccc(C2c3ccc4ccccc4c3Oc3ncn(CCCn4ccnc4)c(=N)c32)cc1OC` (stereo unspecified), 5.542%. `CC1CC(C)CN(C(=O)c2ccc(Cl)cc2Cl)C1` (stereo unspecified): the Inhibition is -45.44%. The value for `CCOc1c(Cl)cc(CNC(C)C(O)c2ccccc2)cc1OC` (stereo unspecified) was -2.917%; that for `CCCCCC(=O)N1c2ccccc2N=C2CC(c3ccc(OC)c(OC)c3)CC(O)=C2C1c1ccc(C(F)(F)F)cc1` (stereo unspecified) was -9.957%; that for `CN1CCN(c2c3c(c(C#N)c4nc5ccccc5n24)CCC3)CC1` was -1.609%. For `CCN1CCN(c2cc(C)c3cc(NC(=O)c4ccc(OC)c(OC)c4)ccc3n2)CC1`, the Inhibition is reported as -21.17%.

Turning to `O=C(NC(c1ccccc1)c1ccc2cccnc2c1O)c1ccccc1` (stereo unspecified), the Inhibition came to 59.29%. The value for `CCOC(=O)c1cnc2ccc(Cl)cc2c1NCCCN(C)C` was 28.81%; that for `CCN(CC)CCNc1ccnc2cc(Cl)ccc12` was -45.62%; that for `COc1ccc(C(C)=O)cc1N1C(=O)C2C(C1=O)C1(c3ccccc3)C(=O)C2(c2ccccc2)C(c2ccc(C)cc2)=C1c1ccc(C)cc1` (stereo unspecified) was 5.543%. Consider `COc1ccc(C2NCCc3c2[nH]c2ccccc32)cc1CN1CCN(c2ccc(F)cc2)CC1.Cl` (stereo unspecified), for which the Inhibition was -2.167%. For `CCCCCn1c(=N)n(CC(O)COc2cccc(C)c2)c2ccccc21.Cl` (stereo unspecified) the value was -6.708%.

For the compound `CCCn1c(=N)c(C(=O)NC2CCCCC2)cc2c(=O)n3cccc(C)c3nc21`, the Inhibition is -27.29%.

As for `Br.CCN(CC)S(=O)(=O)c1ccc(-c2csc(Nc3ccc(C)c(C)c3)n2)cc1`, the Inhibition is recorded as -28.35%. For `COc1cc(-c2nc(-c3ccccc3)c(-c3ccccc3)[nH]2)cc(OC)c1O` the value was -1.324%. The value for `COc1ccc(N2CCN(C(CNC(=O)C3CCCCC3)c3ccc4c(c3)OCO4)CC2)cc1` (stereo unspecified) was -25.24%; that for `CCOC(=O)C1(Cc2ccccc2)CCN(Cc2cccc(OC)c2O)CC1` was -29.57%.

For `CCCOCc1cc(CN2CCN(c3cccc(Cl)c3)CC2)c(O)c2ncccc12`, the Inhibition is given as 58.2%. For `O=C(Nc1ccsc1C(=O)NC1CCCCC1)c1ccc(F)cc1` the value was -24.81%; for `CC1CN(C(=O)c2sc3ccccc3c2Cl)CC(C)O1` (stereo unspecified), 27%. Turning to `COc1ccc(-c2nc3cc(Cc4ccc5[nH]c(-c6ccc(OC)cc6)nc5c4)ccc3[nH]2)cc1`, the Inhibition was found to be 35.52%. For `c1ccc(Cn2c(N=Nc3c(Nc4ccccc4)ccc4ccccc34)nc3ccccc32)cc1` the value was 2.817%; for `O=C(NC1CCCC1)c1ccc(N2CCC(NCc3cccc(C(F)(F)F)c3)CC2)cc1`, -29.41%; for `Cl.N=c1n(CCN2CCCCC2)c2ccccc2n1CC(O)c1cccc(Br)c1` (stereo unspecified), 3.872%. Regarding `CC(C)(C)c1ccc2c(c1)CN(Cc1ccc(Cl)cc1)CO2`, the Inhibition is listed as -0.2226%. On to `COC(=O)c1ccc(Cl)c2c1C1C=CCC1C(c1cccc3ccccc13)N2` (stereo unspecified), for which the Inhibition is reported as -26.02%. For `COc1cc(OC)c(N(C)C(=O)c2cc3c(s2)-c2ccccc2S(=O)(=O)C3)cc1Cl` the value was -25.68%; for `COC(=O)c1ccc(C2C3=C(O)CC(c4ccc(F)cc4)CC3=Nc3ccccc3N2C(=O)c2ccccc2)cc1` (stereo unspecified), -18.81%; for `COc1cc2c3cc1Oc1c(OC)c(OC)cc4c1C(Cc1ccc(O)c(c1)Oc1ccc(cc1)CC3N(C)CC2)N(C)CC4.Cl` (stereo unspecified), -14.29%. For `Cn1c(C(=O)c2cccc3ccccc23)nc2ccccc21`, the Inhibition is -17.7%.

Regarding `Cl.Clc1cc(Br)ccc1-c1ccc(CNCC2CCNCC2)o1`, the Inhibition turned out to be 26.78%. For `CCCCc1ccc(NS(=O)(=O)c2cc3c4c(c2)CCN4C(=O)CC3)cc1` the value was 4.064%; for `COc1ccccc1N1CCN(C(CNS(=O)(=O)c2ccc(Cl)cc2)c2cccnc2)CC1` (stereo unspecified), 38.78%. The value for `CCOc1ccccc1CNC(=O)C1c2ccccc2C(=O)N(CC(C)C)C1c1cccs1` (stereo unspecified) was -30.75%.

Consider `CCOC(=O)c1c(C)n(-c2ccccc2)c2ccc(OC(=O)c3cc(OC)c(OC)c(OC)c3)cc12`, for which the Inhibition was 4.591%.

Regarding `COc1ccc(N2CCN(C(CNC(=O)CC(C)(C)C)c3ccc4c(c3)OCO4)CC2)cc1` (stereo unspecified), the Inhibition was -20.28%. With `COc1ccc(NC(=O)C2c3ccccc3C(=O)N(CC(C)C)C2c2cccs2)cc1Cl` (stereo unspecified), the Inhibition was -10.67%.

`O=C(c1ccccc1F)N(Cc1ccc(Cl)cc1)c1ccccn1`: the Inhibition is -0.1452%.

As to `COc1ccc(C=C2SC(Nc3ccc(F)cc3)=NC2=O)c(OC)c1`, the Inhibition amounted to 36.03%. As to `COc1cc2c(cc1OC)C1=NNC(=O)C1=NC(C)(C)C2`, the Inhibition is -25.43%. The value for `CCOC(=O)C1=C(c2ccccc2)N=c2sc(=Cc3cc(C)n(-c4ccc(F)cc4)c3C)c(=O)n2C1c1cccc(OC)c1OC` (stereo unspecified) was -76.69%; that for `Cc1c(C)n(CC(O)CNC2CCCCC2C)c2ccccc12` (stereo unspecified) was -20.79%. As for `O=C1c2ccccc2-c2nnc(-c3ccc(Br)cc3)cc21`, the Inhibition was -13.35%. Consider `COc1ccc(CCNC(=O)c2cc(S(=O)(=O)N3CC(C)CC(C)C3)ccc2Sc2ccc(F)cc2)cc1OC` (stereo unspecified), for which the Inhibition is 16.29%.

As to `Oc1c2c(nc3cc(-c4ccccc4)nn13)CCCC2`, the Inhibition came out at 37.02%. The value for `Cc1ccc(OCCCCCCNCCO)c(C)c1` was -13.88%; that for `COc1ccc2sc(N(Cc3cccnc3)C(=O)c3ccc(C#N)cc3)nc2c1` was 39.49%; that for `O=C1c2ccc3c4c(ccc(c24)C(=O)N1CCCCO)C(=O)N(CCCCO)C3=O` was 79.86%.

Regarding `CCn1c(CN2CCN(Cc3ccccc3)CC2)nc2cc(NC(=O)c3cccs3)ccc21`, the Inhibition is listed as -14.21%.

As for `CC(C)(C)CC(C)(C)NCC(O)COc1ccc2c(c1)CCC2.Cl` (stereo unspecified), the Inhibition was -49.34%. On to `Cc1ccc(C(=O)c2oc3ccc4c(C)cc(=O)oc4c3c2C)cc1`, for which the Inhibition is 28.07%.

Regarding `Oc1c(C(Nc2ccccn2)c2cccc(Oc3ccccc3)c2)ccc2cccnc12` (stereo unspecified), the Inhibition was 73.93%. As to `CN1CCN(c2ccc(Nc3c4ccccc4nc4ccccc34)cc2)CC1`, the Inhibition is recorded as 7.066%. For `COc1cccc(NC(=O)[C@H](C(C)C)n2c(=O)[nH]c3ccccc3c2=O)c1`, the Inhibition came out at 8.977%.

Consider `Oc1ccc(Br)cc1CN1CCN(Cc2ccc(Cl)cc2)CC1`, for which the Inhibition is reported as -16.25%. `O=C(CSc1ccc2nnc(-c3cccc(F)c3)n2n1)Nc1ccc2c(c1)OCO2`: the Inhibition is on record as -19.97%.

For the compound `Cc1cc(Nc2ccc(OCc3ccccc3)cc2)nc2cc(O)ccc12`, the Inhibition is on record as -18.86%.

Consider `O=C(NC1CCCCC1)C(c1cccs1)N(CCc1ccccc1)C(=O)c1ccco1` (stereo unspecified), for which the Inhibition is -24.45%. As to `COc1cc(-c2nc(-c3ccc(Sc4ccccc4)cc3)c(-c3ccccc3)[nH]2)cc(OC)c1O`, the Inhibition is listed as -39.67%. In the case of `CCOc1cc(Br)c(C(C)NC(=O)c2cccc(OC)c2)cc1OCC` (stereo unspecified), the Inhibition is recorded as -25.9%. For `COc1ccc(CCN2C(=O)c3[nH]nc(-c4cc(Cl)c(C)cc4O)c3C2c2ccccc2F)cc1` (stereo unspecified) the value was 10.68%; for `Cc1ccc2nc(C)cc(Nc3cccc(C(F)(F)F)c3)c2c1.Cl`, 53.25%; for `CC1CCN(Cc2c(O)ccc3cc(-c4nc5ccccc5s4)c(=O)oc23)CC1`, -9.182%. Regarding `COc1cc(C(=O)Nc2ccc(-c3nc4ccccc4[nH]3)cc2)cc(OC)c1OC`, the Inhibition turned out to be 41.18%. As to `N=c1n(CCN2CCCCC2)c2ccccc2n1CC(=O)c1ccc(Cl)c(Cl)c1`, the Inhibition is given as -71.18%.

As to `CSc1ccccc1C(=O)Nc1nc(-c2ccccn2)cs1`, the Inhibition is on record as 75.6%. For `CCC(c1ccccc1)c1nn2c(-c3cccs3)nnc2s1` (stereo unspecified) the value was -11.07%; for `CCCc1c(C)nc2ccc(Br)cc2c1O`, -49.14%.

Consider `CC(NCc1ccccc1)c1cc(Cl)ccc1O` (stereo unspecified), for which the Inhibition is on record as -51.25%. For the compound `Cc1ccc(C)c(Cn2c(N3CCC(C(=O)NCc4cccs4)CC3)nc3ccccc32)c1`, the Inhibition is recorded as -14.3%. With `COc1ccc2c(c1OC)C(=O)N1c3ccccc3N=C(c3ccc(C)cc3)CC21` (stereo unspecified), the Inhibition is reported as -57.7%. As for `CCOc1cc2c(cc1OCC)C(c1cc(C)c(O)c(C)c1)NCC2.Cl` (stereo unspecified), the Inhibition was 13.77%. For `CCOC(=O)c1ccc2nc(-c3ccccc3)cc(O)c2c1` the value was -8.454%. Consider `COc1ccc(C(=O)Nc2ccc3nc(N4CCCCC4)cc(C)c3c2)cc1OC`, for which the Inhibition is 6.852%.

Consider `CCOc1c(Cl)cc(CNCC(O)c2ccccc2)cc1OC` (stereo unspecified), for which the Inhibition was -11.22%. As to `COc1nc(Nc2ccc(C(C)C)cc2)nc(OC)n1`, the Inhibition is on record as 4.363%. Turning to `Cc1cc(N2CCCC2)nc(Nc2ccc(NC(=O)CCc3ccccc3)cc2)n1`, the Inhibition is recorded as 13.46%. In the case of `Cc1cc(N2CCN(C3CCCC3)CC2)n2c(nc3ccccc32)c1C#N`, the Inhibition was -41.28%. Regarding `Cl.c1ccc2c(NCCCCCCNc3c4c(nc5ccccc35)CCCC4)c3c(nc2c1)CCCC3`, the Inhibition came to 13.18%.
